24 compounds from patent US8012979B2, “Compounds and their uses 707” (AstraZeneca AB, priority 2007, dated 2011) can be followed below.

The structures appear in SMILES notation. Structures can show the parent of a compound that is named as a salt.

T1 sequence (Q16539 whole entry): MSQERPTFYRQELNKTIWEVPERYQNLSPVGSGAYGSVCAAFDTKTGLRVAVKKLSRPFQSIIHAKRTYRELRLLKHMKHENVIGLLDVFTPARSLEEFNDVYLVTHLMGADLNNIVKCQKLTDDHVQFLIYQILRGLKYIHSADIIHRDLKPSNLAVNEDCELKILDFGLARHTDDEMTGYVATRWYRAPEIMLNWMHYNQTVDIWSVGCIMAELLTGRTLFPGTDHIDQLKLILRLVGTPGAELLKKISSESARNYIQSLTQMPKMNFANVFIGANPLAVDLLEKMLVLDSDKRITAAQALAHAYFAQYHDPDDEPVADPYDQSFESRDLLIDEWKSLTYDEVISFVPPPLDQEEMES

This test has as its target T1, human active recombinant p38α-6His tagged (Homo sapiens, UniProt Q16539).
T1 construct: 6His
Put plainly: p38 Alpha Enzyme Assay (AlphaScreen, biotinylated-ATF2 substrate). The format is biochemical. To be noted: pre-incubated 4 hours at 37° C., reaction initiated with ATP; 0.5 nM enzyme; read-out: p38 pIC50 (converted). How it is done:
The ability of the compounds of formula (I) to inhibit p38 kinase may be determined using the following biological assay:
Enzyme assays were performed in polypropylene 96 well plates. The following solutions were added to each well; 10 μL of compound dilutions in assay buffer (20 mM HEPES pH 7.4, containing 20 mM magnesium acetate, 0.005% (w/v) Tween-20, 10 mM DTT) containing 1% (v/v) DMSO or assay buffer containing 1% (v/v) DMSO alone, 70 μL of assay buffer containing 36 nM substrate (biotinylated-ATF2) and 10 μL of an appropriate dilution of human active recombinant p38α-6His tagged. Depending on batch of p38, an appropriate dilution was typically a 5 nM solution to give a final enzyme concentration of 0.5 nM. At this stage, background control wells also received 50 μL of AlphaScreen quench buffer (10 mM HEPES pH 7.4 containing 100 mM EDTA, 0.2% (w/v) bovine serum albumin). The plate was covered, pre-incubated for 4 hours at 37° C. and the enzyme reaction initiated by addition of 10 μL 1 mM ATP. After incubation for a further 45 minutes at 37° C., the reaction was stopped by addition of 50 μL quench reagent and 50 μL of the quenched reaction mixture transferred to an opaque, white 96-well plate. Detection reagent, 25 μL of 10 mM HEPES pH 7.4 containing 100 mM EDTA, 0.2% (w/v) bovine serum albumin, 0.3 nM anti phosphoATF2 antibody and 25 μg/mL of ‘AlphaScreen protein A acceptor and donor beads’ (PerkinElmer Inc.), was added to all wells in a darkened room, the plate sealed and left in the dark for at least 5 hours before AlphaScreen readings were taken using a Perkin Elmer EnVision reader. Total, uninhibited activity was determined from assays performed in each assay plate. The mean control in the absence of p38 activity was subtracted from each well. Data were expressed as percent inhibition of total activity using equation 1. Percent Inhibition=100*(1−Test/Control) Eq.1 Where . . . . • Test=p38 kinase activity in the presence of compound • Control=p38 kinase activity in the absence of compound.
pIC50 is defined as the logarithm of the reciprocal of the concentration of compound required for 50% reduction in total p38 kinase activity.
(In general: In Alpha technology, singlet oxygen from a donor bead excites a nearby acceptor bead.)
On to `Cc1ccc(C(=O)NC2CC2)cc1-c1ccc2c(=O)n(CC3CC3)cc(CN3CCC(N4CCCCC4)CC3)c2c1` [Example 62, 3-(4-(1,4′-Bipiperidin-1′-ylmethyl)-2-(cyclopropylmethyl)-1-oxo-1,2-dihydroisoquinolin-6-yl)-N-cyclopropyl-4-methylbenzamide], for which the IC50 was 5.01 nM.
As for `Cc1ccc(C(=O)NC2CC2)cc1-c1ccc2c(=O)n(Cc3ccccc3)cc(C(=O)N3CCN(CCO)CC3)c2c1` [Example 52, 3-(2-Benzyl-4-{[4-(2-hydroxyethyl)piperazin-1-yl]carbonyl}-1-oxo-1,2-dihydroisoquinolin-6-yl)-N-cyclopropyl-4-methylbenzamide], the IC50 was 10 nM.
As for `Cc1ccc(C(=O)NC2CC2)cc1-c1ccc2c(=O)n(Cc3ccccn3)ccc2c1` [Example 126, N-Cyclopropyl-4-methyl-3-(1-oxo-2-(pyridin-2-ylmethyl)-1,2-dihydroisoquinolin-6-yl)benzamide], the figure is 10 nM; as for `Cc1ccc(C(=O)NC2CC2)cc1-c1ccc2c(=O)n(Cc3ccc(C4=CCNCC4)cc3)ccc2c1` [Example 7, N-Cyclopropyl-4-methyl-3-[1-oxo-2-{4-(1,2,3,6-tetrahydro-pyridin-4-yl)-benzyl}-1,2-dihydro-isoquinolin-6-yl]-benzamide, hydrochloride], 0.398 nM.
Take `Cc1ccc(C(=O)NC2CC2)cc1-c1ccc2c(=O)n(Cc3ccc(CN(C)C)cc3)cc(C)c2c1` [Example 95, N-Cyclopropyl-3-(2-(4-((dimethylamino)methyl)benzyl)-4-methyl-1-oxo-1,2-dihydroisoquinolin-6-yl)-4-methylbenzamide]: the IC50 was 2.51 nM.
`Cc1ccc(C(=O)NC2CC2)cc1-c1ccc2c(=O)n(CC3CC3)cc(CN3CCN(C)CC3)c2c1` [Example 74, N-Cyclopropyl-3-(2-(cyclopropylmethyl)-4-((4-methylpiperazin-1-yl)methyl)-1-oxo-1,2-dihydroisoquinolin-6-yl)-4-methylbenzamide]: the IC50 was 0.631 nM.
`Cc1ccc(C(=O)NC2CC2)cc1-c1ccc2c(=O)n(Cc3ccncc3)cc(C(=O)N3CCC(N(C)C)CC3)c2c1` [Example 56, N-Cyclopropyl-3-(4-(4-(dimethylamino)piperidine-1-carbonyl)-1-oxo-2-(pyridin-4-ylmethyl)-1,2-dihydroisoquinolin-6-yl)-4-methylbenzamide]: the IC50 is 7.94 nM.
As for `Cc1ccc(C(=O)NC2CC2)cc1-c1ccc2c(=O)n(Cc3ccc(C4CCNCC4)cc3)ccc2c1` [Example 8, N-Cyclopropyl-4-methyl-3-[1-oxo-2-(4-piperidin-4-yl-benzyl)-1,2-dihydro-isoquinolin-6-yl]-benzamide], the figure is 0.501 nM.
As for `Cc1ccc(C(=O)NC2CC2)cc1-c1ccc2c(=O)n(Cc3ccc(Br)cc3)ccc2c1` [Example 3, 3-[2-(4-Bromo-benzyl)-1-oxo-1,2-dihydro-isoquinolin-6-yl]-N-cyclopropyl-4-methyl-benzamide], the figure is 2.51 nM; as for `Cc1c(F)cc(C(=O)NC2CC2)cc1-c1ccc2c(=O)n(Cc3ccccc3)cc(C(=O)NCCN(C)C)c2c1` [Example 60, 2-Benzyl-6-(5-(cyclopropylcarbamoyl)-3-fluoro-2-methylphenyl)-N-(2-(dimethylamino)ethyl)-1-oxo-1,2-dihydroisoquinoline-4-carboxamide], 0.398 nM.
The figure for `Cc1ccc(C(=O)NC2CC2)cc1-c1ccc2c(=O)n(Cc3cccc(CN(C)C)c3)ccc2c1` [Example 15, N-Cyclopropyl-3-[2-(3-dimethylaminomethyl-benzyl)-1-oxo-1,2-dihydro-isoquinolin-6-yl]-4-methyl-benzamide] is 3.16 nM; for `Cc1ccc(C(=O)NC2CC2)cc1-c1ccc2c(=O)n(Cc3ccc(OCCN(C)C)cc3)ccc2c1` [Example 32, N-Cyclopropyl-3-(2-(4-(2-(dimethylamino)ethoxy)benzyl)-1-oxo-1,2-dihydroisoquinolin-6-yl)-4-methylbenzamide] it is 0.501 nM; for `Cc1ccc(C(=O)NC2CC2)cc1-c1ccc2c(=O)n(Cc3ccc(S(C)(=O)=O)cc3)cc(CN3CCCN(C)CC3)c2c1` [Example 103, N-Cyclopropyl-4-methyl-3-(4-((4-methyl-1,4-diazepan-1-yl)methyl)-2-(4-(methylsulfonyl)benzyl)-1-oxo-1,2-dihydroisoquinolin-6-yl)benzamide] it is 0.126 nM.
As to `Cc1ccc(C(=O)NC2CC2)cc1-c1ccc2c(=O)n(CC3CC3)cc(C(=O)N3CC[C@@H](N)C3)c2c1` [Example 37, (R)-3-(4-(3-Aminopyrrolidine-1-carbonyl)-2-(cyclopropylmethyl)-1-oxo-1,2-dihydroisoquinolin-6-yl)-N-cyclopropyl-4-methylbenzamide], the IC50 is 3.98 nM.
The figure for `Cc1ccc(C(=O)NC2CC2)cc1-c1ccc2c(=O)n(Cc3ccc(C(=O)NCCN4CCCC4)cc3)ccc2c1` [Example 22, N-Cyclopropyl-4-methyl-3-(1-oxo-2-(4-(2-(pyrrolidin-1-yl)ethylcarbamoyl)benzyl)-1,2-dihydroisoquinolin-6-yl)benzamide] is 0.794 nM.
As for `Cc1c(F)cc(C(=O)NC2CC2)cc1-c1ccc2c(=O)n(Cc3ccc(S(C)(=O)=O)cc3)cc(CN3CCN(C)CC3)c2c1` [Example 112, N-Cyclopropyl-3-fluoro-4-methyl-5-(4-((4-methylpiperazin-1-yl)methyl)-2-(4-(methylsulfonyl)benzyl)-1-oxo-1,2-dihydroisoquinolin-6-yl)benzamide], the IC50 was 0.126 nM.
For the compound `Cc1c(F)cc(C(=O)NC2CC2)cc1-c1ccc2c(=O)n(Cc3ccc(S(C)(=O)=O)cc3)cc(CN3CCN[C@@H](CO)C3)c2c1` [Example 113, (R)—N-Cyclopropyl-3-fluoro-5-(4-((3-(hydroxymethyl)piperazin-1-yl)methyl)-2-(4-(methylsulfonyl)benzyl)-1-oxo-1,2-dihydroisoquinolin-6-yl)-4-methylbenzamide], the IC50 is 0.0794 nM.
Take `Cc1ccc(C(=O)NC2CC2)cc1-c1ccc2c(=O)n(Cc3ccncc3)cc(C(=O)N(C)C3CCN(C)CC3)c2c1` [Example 55, 6-(5-(Cyclopropylcarbamoyl)-2-methylphenyl)-N-methyl-N-(1-methylpiperidin-4-yl)-1-oxo-2-(pyridin-4-ylmethyl)-1,2-dihydroisoquinoline-4-carboxamide]: the IC50 was 31.6 nM.
Regarding `Cc1ccc(C(=O)NC2CC2)cc1-c1ccc2c(=O)n(Cc3ccc(OCCCN(C)C)nc3)ccc2c1` [Example 29, N-Cyclopropyl-3-(2-((6-(3-(dimethylamino)propoxy)pyridin-3-yl)methyl)-1-oxo-1,2-dihydroisoquinolin-6-yl)-4-methylbenzamide], the IC50 is 1.58 nM.
As for `Cc1ccc(C(=O)NC2CC2)cc1-c1ccc2c(=O)n(CC3CC3)cc(C(=O)NC3CCNCC3)c2c1` [Example 41, 6-(5-(Cyclopropylcarbamoyl)-2-methylphenyl)-2-(cyclopropylmethyl)-1-oxo-N-(piperidin-4-yl)-1,2-dihydroisoquinoline-4-carboxamide], the figure is 1.58 nM; as for `Cc1c(F)cc(C(=O)NC2CC2)cc1-c1ccc2c(=O)n(CC3CC3)cc(CN3CCNCC3)c2c1` [Example 88, N-Cyclopropyl-3-(2-(cyclopropylmethyl)-1-oxo-4-(piperazin-1-ylmethyl)-1,2-dihydroisoquinolin-6-yl)-5-fluoro-4-methylbenzamide], 0.0631 nM.
The figure for `Cc1ccc(C(=O)NC2CC2)cc1-c1ccc2c(=O)n(Cc3ccccc3)cc(C(=O)NCCCN(C)C)c2c1` [Example 51, 2-Benzyl-6-{5-[(cyclopropylamino)carbonyl]-2-methylphenyl}-N-[3-(dimethylamino)propyl]-1-oxo-1,2-dihydroisoquinoline-4-carboxamide] is 2 nM.
The figure for `Cc1ccc(C(=O)NC2CC2)cc1-c1ccc2c(=O)n(Cc3ccc(N4CCN(C)CC4)cc3)ccc2c1` [Example 4, N-Cyclopropyl-4-methyl-3{2-[4-(4-methyl-piperazin-1-yl)-benzyl]-1-oxo-1,2-dihydro-isoquinolin-6-yl}-benzamide] is 1.26 nM; for `Cc1c(F)cc(C(=O)NC2CC2)cc1-c1ccc2c(=O)n(CC3CC3)cc(CN3CCC[N+]([O-])(CCO)CC3)c2c1` (stereo not drawn) [Example 79, 4-((6-(5-(Cyclopropylcarbamoyl)-3-fluoro-2-methylphenyl)-2-(cyclopropylmethyl)-1-oxo-1,2-dihydroisoquinolin-4-yl)methyl)-1-(2-hydroxyethyl)-1,4-diazepane 1-oxide] it is 0.631 nM.
